Experiments:
[1] = Stability upon dilution or storage, by reverse phase HPLC; format: physicochemical; conditions: for time docetaxel remained soluble and formulation stable upon dilution: RP-HPLC
Description: Docetaxel (5 mg) was added to 31 μL of oleic acid and mixed using a VORTEX®. Ethanolamine (6 μL) was subsequently added and mixed using a VORTEX®. After mixing, the sample was dispersed in 963 μL of water for injection. Docetaxel was soluble and the formulation clear at 5 mg/mL. Docetaxel remained soluble, and the formulation was stable, upon dilution (1:10 in 2.5% glycerol) up to 24 hours as analyzed by a reverse phase high performance liquid chromatography method.
Docetaxel (5.0 mg) was added to 1 mL of 0.05 M sodium oleate and mixed using a VORTEX®. Docetaxel was soluble and the formulation clear at 5.0 mg/mL. Docetaxel remained soluble, and the formulation was stable, upon dilution (1:10 in 2.5% glycerol) up to 24 hours as analyzed by a reverse phase high performance liquid chromatography method.
Docetaxel (2 mg) was added to 1 mL of 1 M sodium caprylate and mixed by a VORTEX®. Docetaxel was soluble and the formulation clear at 2 mg/mL. Docetaxel remained soluble, and the formulation was stable, upon dilution (1:2 2.5% glycerol) up to 24 hours as analyzed by a reverse phase high performance liquid chromatography method.
Docetaxel (7.0 mg) was added to 1 mL of 1 M sodium linoleate and mixed using a VORTEX®. Docetaxel was soluble and the formulation clear at 7.0 mg/mL. Docetaxel remained soluble, and the formulation was stable, upon dilution (1:10 2.5% glycerol) up to 24 hours as analyzed by a reverse phase high performance liquid chromatography method.
Docetaxel (5 mg) was added to 1 mL of pre-made liposome containing 2 mM sodium oleate and 6% soy phosphatidyl choline, 10% trehalose, pH adjusted to 5-7 using Acetic acid, mixed using a VORTEX®, and microfluidized using a Microfluidizer with 10 passes at 15,000 psi. Five additional passes with the Microfluidizer at 15,000 psi were made to incorporate all 5 mg of the drug into 1 mL of pre-made liposome. Docetaxel was soluble and the formulation was transparent at 5 mg/mL. Docetaxel remained soluble, and the formulation was stable, upon dilution (1:10 in D5W) up to 48 hours as analyzed by a reverse phase high performance liquid chromatography method.
Hydrophobic or lipophilic compounds can be solubilized directly in sodium (or any ion) salt of fatty acid dissolved in an organic solvent. The organic solvent is subsequently removed using rotary evaporation, spray drying, or any other pharmaceutically acceptable processes. The drug-sodium salt of fatty acid mixture is subsequently dispersed in water, isotonic glycerol, or any pharmaceutically acceptable isotonic solution to achieve a desired concentration of the solubilized compound. For example, docetaxel (5 mg/mL) was dissolved in 100 mM sodium oleate in 100% ethanol. Ethanol was completely evaporated using rotary evaporation at 20° C. The docetaxel-sodium oleate was reconstituted with Water For Injection (“WFI”) or 2.5% glycerol to provide 5 mg/mL, 10 mg/mL, or 20 mg/mL concentration of docetaxel.
50 μl of Docetaxel in ethanol (100 mg/mL) was added to 1 mL of pre-made liposome containing 2 mM sodium oleate and 6% soy phosphatidyl choline, 10% trehalose and pH adjusted to 5-7 using Acetic acid, mixed using a VORTEX® and microfluidized using a Microfluidizer with 10 passes at 15,000 psi. Docetaxel was soluble and the formulation is transparent at 5 mg/mL. Docetaxel remained soluble, and the formulation was stable, upon dilution (1:10 in D5W) up to 48 hours as analyzed by a reverse phase high performance liquid chromatography method. […] The lyophilized product is reconstituted with water for injection at 5 mg, 10, or 20 mg/ml, concentration, essentially free of organic solvent.

[2] = Incorporation of docetaxel into liposome; format: physicochemical; conditions: docetaxel added after liposome preparation vs conventional process
Description: As provided herein, the sequence of the addition of docetaxel results in enhanced solubility of the docetaxel. The conventional method of incorporating a hydrophobic drug into liposome is by adding the drug to lipid before liposome preparation. See, e.g., Immordino, M. L. et al., Journal of Controlled Release, 2003, 91: 417-429. By the conventional process, the incorporation of the drug is only 0.3 to 0.7 mg/mL. When docetaxel is added after liposome preparation, the incorporation of docetaxel is increased from 0.3 mg/mL to 5 mg/mL, which is more than 10 fold increase in solubility of the drug in lipid alone.
In the conventional liposome preparation, the drug to lipid molar percent ratio is 4-6% with the incorporation of drug into liposome efficiency is only 56%. See Immordino, M. L. et al., Journal of Controlled Release, 2003, 91: 417-429.

CC(=O)O[C@@]12CO[C@@H]1C[C@H](O)[C@@]1(C)C(=O)[C@H](O)C3=C(C)[C@@H](OC(=O)[C@H](O)[C@@H](NC(=O)OC(C)(C)C)c4ccccc4)C[C@@](O)([C@@H](OC(=O)c4ccccc4)[C@H]21)C3(C)C [Docetaxel, docetaxel]
time docetaxel remained soluble and formulation stable upon dilution ([1]; Example 6 oleic acid formulation, dilution 1:10 in 2.5% glycerol): up to 24 hours | time docetaxel remained soluble and formulation stable upon dilution ([1]; Example 7 sodium oleate formulation, dilution 1:10 in 2.5% glycerol): up to 24 hours | time docetaxel remained soluble and formulation stable upon dilution ([1]; Example 8 sodium caprylate formulation, dilution 1:2 2.5% glycerol): up to 24 hours | time docetaxel remained soluble and formulation stable upon dilution ([1]; Example 9 sodium linoleate formulation, dilution 1:10 2.5% glycerol): up to 24 hours | time docetaxel remained soluble and formulation stable upon dilution ([1]; Example 10 oleate liposome formulation, dilution 1:10 in D5W): up to 48 hours | stability of the lyophilized formulation ([1]; Example 10 oleate liposome formulation): stable for more than a year | time reconstituted docetaxel remained in solution ([1]; Example 11: docetaxel-sodium oleate reconstituted with WFI or 2.5% glycerol to 5, 10 or 20 mg/mL): remained in solution for 2 hours, 4 hours, 6 hours, 8 hours or 24 hours | time docetaxel remained soluble and formulation stable upon dilution ([1]; Example 12 nanosome-oleate formulation, dilution 1:10 in D5W): up to 48 hours | stability of the lyophilized formulation ([1]; Example 12 nanosome-oleate formulation): stable for more than a year | increase in solubility of the drug over lipid alone [2]: more than 10 fold
